Reference: ChEMBL document CHEMBL3832058, “DailyMed|setid=78f196d4-110e-45b1-813a-725f52c1a4eb | OXCARBAZEPINE -oxcarbazepine tablet, film coated|Bryant Ranch Prepack”

Tested on: Homo sapiens
Experiment: Pharmacokinetic parameters for Oxcarbazepine and its active metabolite, 10-Monohydroxy Carbazepine evaluated after oral administration of Oxcarbazepine tablets.
Format: ADME, organism-based
Details: in vivo, dosed compound id 11, dosed compound name OXCARBAZEPINE; for Excretion: tissue Urine

Tmax (dietary status Fasting, gender male, regimen Single dose, tissue Plasma) | t1/2 (dose 300 mg, regimen Single dose, tissue Plasma) | Vd(app) (tissue Plasma) | t1/2 (tissue Plasma) | Excretion | Structure (SMILES)
4.5 h | 19 h | 49 L | 9 h | 49% | NC(=O)N1c2ccccc2CC(O)c2ccccc21 (configuration not stated) [LICARBAZEPINE]
– | – | – | 2 h | 27% | NC(=O)N1c2ccccc2CC(=O)c2ccccc21 [OXCARBAZEPINE]
